Measurements from US9340590B2 (priority 2011, dated 2016).
Positions of bridges follow the written chain, without caps; N, C: chain ends. Non-standard residues stand in square brackets, D forms with d. Residues, ends and D or L forms follow the SMILES beside them. Nva = CCC[C@H](N)C(=O)O; Abu = CC[C@H](N)C(=O)O

What was measured:
Assay in all cases: cell-based
[1] = biological target: hNav1.7 (Homo sapiens, UniProt Q15858); type: cell-based; conditions: IonWorks Quattro, use-dependent protocol, hNav1.7; read-out: IWQ Use Nav1.7
[2] = biological target: hNav1.3 (Homo sapiens, UniProt Q9NY46); conditions: IonWorks Quattro, use-dependent protocol, hNav1.3; read-out: IWQ Use Nav1.3
[3] = biological target: hNav1.5 (Homo sapiens, UniProt Q14524); conditions: IonWorks Quattro, use-dependent protocol, hNav1.5; read-out: IWQ Use Nav1.5

Sequence of hNav1.7 (Q15858 whole entry, looked up): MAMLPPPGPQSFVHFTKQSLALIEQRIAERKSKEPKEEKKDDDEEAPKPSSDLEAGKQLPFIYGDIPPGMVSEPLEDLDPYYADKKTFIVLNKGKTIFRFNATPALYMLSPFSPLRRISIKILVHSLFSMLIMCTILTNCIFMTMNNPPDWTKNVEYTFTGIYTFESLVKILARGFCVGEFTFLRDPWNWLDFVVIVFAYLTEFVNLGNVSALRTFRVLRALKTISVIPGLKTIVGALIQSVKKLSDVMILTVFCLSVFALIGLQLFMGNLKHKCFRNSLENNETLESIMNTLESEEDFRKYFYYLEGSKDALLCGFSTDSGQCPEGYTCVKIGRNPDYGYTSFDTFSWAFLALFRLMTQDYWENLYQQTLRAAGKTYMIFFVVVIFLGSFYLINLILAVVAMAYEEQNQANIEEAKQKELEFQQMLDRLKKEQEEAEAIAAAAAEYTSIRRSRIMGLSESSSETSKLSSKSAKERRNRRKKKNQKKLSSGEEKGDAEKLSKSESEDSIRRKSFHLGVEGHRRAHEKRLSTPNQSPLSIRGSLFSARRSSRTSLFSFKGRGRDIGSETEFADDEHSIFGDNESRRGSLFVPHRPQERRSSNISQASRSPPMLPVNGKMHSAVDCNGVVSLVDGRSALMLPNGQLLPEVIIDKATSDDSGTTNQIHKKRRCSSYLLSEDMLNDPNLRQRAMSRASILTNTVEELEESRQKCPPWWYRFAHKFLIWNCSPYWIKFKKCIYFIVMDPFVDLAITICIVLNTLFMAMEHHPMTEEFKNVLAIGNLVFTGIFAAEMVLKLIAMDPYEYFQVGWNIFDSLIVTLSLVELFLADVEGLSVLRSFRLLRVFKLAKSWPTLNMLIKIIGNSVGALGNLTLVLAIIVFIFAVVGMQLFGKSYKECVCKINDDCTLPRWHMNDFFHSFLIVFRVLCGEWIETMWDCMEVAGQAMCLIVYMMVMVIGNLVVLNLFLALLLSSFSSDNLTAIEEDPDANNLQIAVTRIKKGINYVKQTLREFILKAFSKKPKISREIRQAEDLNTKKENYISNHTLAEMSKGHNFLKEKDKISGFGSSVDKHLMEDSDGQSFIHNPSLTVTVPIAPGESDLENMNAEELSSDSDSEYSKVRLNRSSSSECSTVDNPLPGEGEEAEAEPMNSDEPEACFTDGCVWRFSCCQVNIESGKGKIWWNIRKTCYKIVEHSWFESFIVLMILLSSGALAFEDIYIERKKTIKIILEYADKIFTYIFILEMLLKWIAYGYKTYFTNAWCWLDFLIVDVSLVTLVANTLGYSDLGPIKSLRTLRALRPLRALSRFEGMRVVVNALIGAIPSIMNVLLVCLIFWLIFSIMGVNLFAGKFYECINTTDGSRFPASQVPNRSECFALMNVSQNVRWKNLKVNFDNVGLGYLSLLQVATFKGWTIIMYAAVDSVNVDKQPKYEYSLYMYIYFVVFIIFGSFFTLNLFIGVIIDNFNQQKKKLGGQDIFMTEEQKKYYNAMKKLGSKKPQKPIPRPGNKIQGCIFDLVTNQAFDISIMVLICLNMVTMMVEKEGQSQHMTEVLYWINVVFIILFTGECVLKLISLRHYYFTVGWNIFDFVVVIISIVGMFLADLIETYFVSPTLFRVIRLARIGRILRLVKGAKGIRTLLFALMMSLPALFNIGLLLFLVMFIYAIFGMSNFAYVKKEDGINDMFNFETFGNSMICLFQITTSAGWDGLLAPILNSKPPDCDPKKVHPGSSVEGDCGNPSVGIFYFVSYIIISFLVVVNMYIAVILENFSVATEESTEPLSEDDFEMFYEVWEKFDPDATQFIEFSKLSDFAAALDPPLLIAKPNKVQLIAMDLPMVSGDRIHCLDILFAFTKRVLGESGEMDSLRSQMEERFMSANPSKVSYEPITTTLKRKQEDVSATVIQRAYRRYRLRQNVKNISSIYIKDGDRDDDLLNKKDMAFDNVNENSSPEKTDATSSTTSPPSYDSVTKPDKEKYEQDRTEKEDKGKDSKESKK
Sequence of hNav1.3 (Q9NY46 whole entry, looked up): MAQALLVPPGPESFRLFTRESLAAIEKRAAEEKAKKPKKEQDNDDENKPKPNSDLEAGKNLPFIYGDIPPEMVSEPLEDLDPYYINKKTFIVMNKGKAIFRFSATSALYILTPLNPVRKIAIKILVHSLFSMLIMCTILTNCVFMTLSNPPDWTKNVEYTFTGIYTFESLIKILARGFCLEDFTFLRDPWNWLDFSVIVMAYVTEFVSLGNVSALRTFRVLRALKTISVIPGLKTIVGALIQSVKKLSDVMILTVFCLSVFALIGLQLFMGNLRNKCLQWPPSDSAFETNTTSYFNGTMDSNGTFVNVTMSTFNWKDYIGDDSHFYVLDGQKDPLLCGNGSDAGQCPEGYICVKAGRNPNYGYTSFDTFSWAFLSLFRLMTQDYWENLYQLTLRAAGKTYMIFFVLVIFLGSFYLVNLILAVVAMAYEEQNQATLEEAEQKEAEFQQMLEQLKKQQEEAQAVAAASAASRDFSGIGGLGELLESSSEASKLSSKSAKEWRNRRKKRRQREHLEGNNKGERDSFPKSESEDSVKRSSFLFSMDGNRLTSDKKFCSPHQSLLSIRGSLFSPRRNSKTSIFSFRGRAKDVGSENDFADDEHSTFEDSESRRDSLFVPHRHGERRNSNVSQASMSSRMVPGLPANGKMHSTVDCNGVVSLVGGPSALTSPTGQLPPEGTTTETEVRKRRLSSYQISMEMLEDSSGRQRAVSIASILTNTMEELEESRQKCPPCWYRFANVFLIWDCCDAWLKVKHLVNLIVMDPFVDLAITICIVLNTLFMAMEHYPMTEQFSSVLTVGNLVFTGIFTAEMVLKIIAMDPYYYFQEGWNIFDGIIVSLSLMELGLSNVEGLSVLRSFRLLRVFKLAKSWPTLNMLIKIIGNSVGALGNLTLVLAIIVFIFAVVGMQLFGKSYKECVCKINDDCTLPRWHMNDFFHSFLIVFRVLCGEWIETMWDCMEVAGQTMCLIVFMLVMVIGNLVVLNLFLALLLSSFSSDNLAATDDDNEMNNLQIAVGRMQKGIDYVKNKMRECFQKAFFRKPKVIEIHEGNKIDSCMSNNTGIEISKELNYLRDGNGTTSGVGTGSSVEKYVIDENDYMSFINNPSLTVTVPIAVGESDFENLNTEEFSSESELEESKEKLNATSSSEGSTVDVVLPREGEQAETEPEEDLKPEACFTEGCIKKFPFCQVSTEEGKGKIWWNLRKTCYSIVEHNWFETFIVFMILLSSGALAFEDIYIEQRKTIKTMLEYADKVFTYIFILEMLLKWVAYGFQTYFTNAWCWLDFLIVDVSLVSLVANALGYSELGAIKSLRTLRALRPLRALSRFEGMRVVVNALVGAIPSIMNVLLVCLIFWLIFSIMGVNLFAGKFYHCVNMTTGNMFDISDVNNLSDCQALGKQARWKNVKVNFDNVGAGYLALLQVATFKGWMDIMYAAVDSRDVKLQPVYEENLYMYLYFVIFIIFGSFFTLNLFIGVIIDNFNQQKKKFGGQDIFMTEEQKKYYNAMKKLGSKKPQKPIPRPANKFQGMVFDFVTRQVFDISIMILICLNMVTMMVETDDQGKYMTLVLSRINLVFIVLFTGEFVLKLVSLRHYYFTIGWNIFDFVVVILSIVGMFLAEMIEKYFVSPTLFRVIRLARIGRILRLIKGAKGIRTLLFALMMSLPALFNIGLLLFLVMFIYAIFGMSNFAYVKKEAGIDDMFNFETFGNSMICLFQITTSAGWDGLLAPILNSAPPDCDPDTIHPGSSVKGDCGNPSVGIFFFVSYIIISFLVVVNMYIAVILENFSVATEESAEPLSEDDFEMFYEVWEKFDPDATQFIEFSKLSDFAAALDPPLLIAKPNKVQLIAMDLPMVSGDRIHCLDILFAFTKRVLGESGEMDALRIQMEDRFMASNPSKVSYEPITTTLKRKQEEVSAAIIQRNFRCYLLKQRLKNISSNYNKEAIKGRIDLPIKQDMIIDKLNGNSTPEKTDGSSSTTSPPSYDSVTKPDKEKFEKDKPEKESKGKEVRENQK

Compound	IC50 [1]	IC50 [2]	IC50 [3]
CCC[C@@H]1NC(=O)CNC(=O)[C@H](CC(C)C)NC(=O)[C@@H](NC(=O)[C@@H](N)CC(=O)O)CSSC[C@@H]2NC(=O)[C@@H]3CSSC[C@@H](C(=O)N[C@@H](CCCCN)C(=O)N[C@@H](Cc4ccc(O)cc4)C(=O)N[C@H](C(=O)N[C@@H](Cc4ccccc4)C(N)=O)C(C)C)NC(=O)[C@H](Cc4c[nH]c5ccccc45)NC(=O)[C@H](CCC(=O)O)NC(=O)[C@H](Cc4c[nH]cn4)NC(=O)[C@H]([C@@H](C)O)NC(=O)[C@H](CCCNC(=N)N)NC(=O)[C@H](CO)NC(=O)[C@H](CSSC[C@H](NC(=O)[C@H](CCCCN)NC(=O)[C@H](CCCNC(=N)N)NC(=O)[C@H](CCSC)NC1=O)C(=O)N[C@@H]([C@@H](C)CC)C(=O)N1CCC[C@H]1C(=O)N[C@@H](CC(=O)O)C(=O)N[C@@H](CC(N)=O)C(=O)N[C@@H](CC(=O)O)C(=O)N[C@@H](CCCCN)C(=O)N3)NC(=O)[C@H](C(C)C)NC(=O)[C@H](CC(C)C)NC(=O)[C@H](CC(N)=O)NC(=O)[C@@H]1CCCN1C(=O)[C@H](CCCNC(=N)N)NC2=O [compound 705] (H-DCLG[Nva]MRKCIPDNDKCCRPNLVCSRTHEWCKYVF-NH2; disulfide 2-17, 9-23, 16-30)	430 nM	3400 nM	33000 nM
CC[C@@H]1NC(=O)CNC(=O)[C@H](CC(C)C)NC(=O)[C@@H](NC(=O)[C@@H](N)CC(=O)O)CSSC[C@@H]2NC(=O)[C@@H]3CSSC[C@@H](C(=O)N[C@@H](CCCCN)C(=O)N[C@@H](Cc4ccc(O)cc4)C(=O)N[C@H](C(=O)N[C@@H](Cc4ccccc4)C(N)=O)C(C)C)NC(=O)[C@H](Cc4c[nH]c5ccccc45)NC(=O)[C@H](CCC(=O)O)NC(=O)[C@H](Cc4c[nH]cn4)NC(=O)[C@H]([C@@H](C)O)NC(=O)[C@H](CCCNC(=N)N)NC(=O)[C@H](CO)NC(=O)[C@H](CSSC[C@H](NC(=O)[C@H](CCCCN)NC(=O)[C@H](CCCNC(=N)N)NC(=O)[C@H](CCSC)NC1=O)C(=O)N[C@@H]([C@@H](C)CC)C(=O)N1CCC[C@H]1C(=O)N[C@@H](CC(=O)O)C(=O)N[C@@H](CC(N)=O)C(=O)N[C@@H](CC(=O)O)C(=O)N[C@@H](CCCCN)C(=O)N3)NC(=O)[C@H](C(C)C)NC(=O)[C@H](CC(C)C)NC(=O)[C@H](CC(N)=O)NC(=O)[C@@H]1CCCN1C(=O)[C@H](CCCNC(=N)N)NC2=O [compound 706] (H-DCLG[Abu]MRKCIPDNDKCCRPNLVCSRTHEWCKYVF-NH2; disulfide 2-17, 9-23, 16-30)	1400 nM	> 5000 nM	> 50000 nM
CC[C@@H]1NC(=O)CNC(=O)[C@H](CC(C)C)NC(=O)[C@@H](NC(=O)[C@@H](N)CC(=O)O)CSSC[C@@H]2NC(=O)[C@@H]3CSSC[C@@H](C(=O)N[C@@H](CCCCN)C(=O)N[C@@H](Cc4ccc(O)cc4)C(=O)N[C@H](C(=O)N[C@@H](Cc4ccccc4)C(N)=O)C(C)C)NC(=O)[C@H](Cc4c[nH]c5ccccc45)NC(=O)[C@H](CCC(=O)O)NC(=O)[C@H](Cc4c[nH]cn4)NC(=O)[C@H]([C@@H](C)O)NC(=O)[C@H](CCCNC(=N)N)NC(=O)[C@H](CO)NC(=O)[C@H](CSSC[C@H](NC(=O)[C@H](CCCCN)NC(=O)[C@H](CCCNC(=N)N)NC(=O)[C@H](CC(C)C)NC1=O)C(=O)N[C@@H]([C@@H](C)CC)C(=O)N1CCC[C@H]1C(=O)N[C@@H](CC(=O)O)C(=O)N[C@@H](CC(N)=O)C(=O)N[C@@H](CC(=O)O)C(=O)N[C@@H](CCCCN)C(=O)N3)NC(=O)[C@H](C(C)C)NC(=O)[C@H](CC(C)C)NC(=O)[C@H](CC(N)=O)NC(=O)[C@@H]1CCCN1C(=O)[C@H](CCCNC(=N)N)NC2=O [compound 707] (H-DCLG[Abu]LRKCIPDNDKCCRPNLVCSRTHEWCKYVF-NH2; disulfide 2-17, 9-23, 16-30)	1200 nM	> 5000 nM	6000 nM
CCC[C@@H]1NC(=O)CNC(=O)[C@H](CC(C)C)NC(=O)[C@@H](NC(=O)[C@@H](N)CC(=O)O)CSSC[C@@H]2NC(=O)[C@@H]3CSSC[C@@H](C(=O)N[C@@H](CCCCN)C(=O)N[C@@H](Cc4ccc(O)cc4)C(=O)N[C@H](C(=O)N[C@@H](Cc4ccccc4)C(N)=O)C(C)C)NC(=O)[C@H](Cc4c[nH]c5ccccc45)NC(=O)[C@H](CCC(=O)O)NC(=O)[C@H](Cc4c[nH]cn4)NC(=O)[C@H]([C@@H](C)O)NC(=O)[C@H](CCCNC(=N)N)NC(=O)[C@H](CO)NC(=O)[C@H](CSSC[C@H](NC(=O)[C@H](CCCCN)NC(=O)[C@H](CCCNC(=N)N)NC(=O)[C@H](CC(C)C)NC1=O)C(=O)N[C@@H]([C@@H](C)CC)C(=O)N1CCC[C@H]1C(=O)N[C@@H](CC(=O)O)C(=O)N[C@@H](CC(N)=O)C(=O)N[C@@H](CC(=O)O)C(=O)N[C@@H](CCCCN)C(=O)N3)NC(=O)[C@H](C(C)C)NC(=O)[C@H](CC(C)C)NC(=O)[C@H](CC(N)=O)NC(=O)[C@@H]1CCCN1C(=O)[C@H](CCCNC(=N)N)NC2=O [compound 708] (H-DCLG[Nva]LRKCIPDNDKCCRPNLVCSRTHEWCKYVF-NH2; disulfide 2-17, 9-23, 16-30)	370 nM	2800 nM	31000 nM
CC[C@H](C)[C@@H]1NC(=O)[C@@H]2CSSC[C@@H]3NC(=O)[C@H](C(C)C)NC(=O)[C@H](CC(C)C)NC(=O)[C@H](CC(N)=O)NC(=O)[C@@H]4CCCN4C(=O)[C@H](CCCNC(=N)N)NC(=O)[C@H](CSSC[C@H](NC(=O)[C@@H](N)CC(=O)O)C(=O)N[C@@H](CC(C)C)C(=O)NCC(=O)N[C@@H](C(C)C)C(=O)N[C@@H](CC(C)C)C(=O)N[C@@H](CCCNC(=N)N)C(=O)N[C@@H](CCCCN)C(=O)N2)NC(=O)[C@H](CSSC[C@@H](C(=O)N[C@@H](CCCCN)C(=O)N[C@@H](Cc2ccc(O)cc2)C(=O)N[C@H](C(=O)N[C@@H](Cc2ccccc2)C(N)=O)C(C)C)NC(=O)[C@H](Cc2c[nH]c4ccccc24)NC(=O)[C@H](CCC(=O)O)NC(=O)[C@H](Cc2c[nH]cn2)NC(=O)[C@H]([C@@H](C)O)NC(=O)[C@H](CCCNC(=N)N)NC(=O)[C@H](CO)NC3=O)NC(=O)[C@H](CCCCN)NC(=O)[C@H](CC(=O)O)NC(=O)[C@H](CC(N)=O)NC(=O)[C@H](CC(=O)O)NC(=O)[C@@H]2CCCN2C1=O [compound 709] (H-DCLGVLRKCIPDNDKCCRPNLVCSRTHEWCKYVF-NH2; disulfide 2-17, 9-23, 16-30)	740 nM	4800 nM	43000 nM
CSCC[C@@H]1NC(=O)[C@H](C(C)C)NC(=O)CNC(=O)[C@H](CC(C)C)NC(=O)[C@@H](NC(=O)[C@@H](N)CC(=O)O)CSSC[C@@H]2NC(=O)[C@@H]3CSSC[C@@H](C(=O)N[C@@H](CCCCN)C(=O)N[C@@H](Cc4ccc(O)cc4)C(=O)N[C@H](C(=O)N[C@@H](Cc4ccccc4)C(N)=O)C(C)C)NC(=O)[C@H](Cc4c[nH]c5ccccc45)NC(=O)[C@H](CCCCN)NC(=O)[C@H](Cc4c[nH]cn4)NC(=O)[C@H]([C@@H](C)O)NC(=O)[C@H](CCCNC(=N)N)NC(=O)[C@H](CO)NC(=O)[C@H](CSSC[C@H](NC(=O)[C@H](CCCCN)NC(=O)[C@H](CCCNC(=N)N)NC1=O)C(=O)N[C@@H](CC(=O)O)C(=O)N1CCC[C@H]1C(=O)N[C@@H](CC(=O)O)C(=O)N[C@@H](CC(N)=O)C(=O)N[C@@H](CC(=O)O)C(=O)N[C@@H](CCCCN)C(=O)N3)NC(=O)[C@H](C(C)C)NC(=O)[C@H](CC(C)C)NC(=O)[C@H](CC(N)=O)NC(=O)[C@@H]1CCCN1C(=O)[C@H](CCCNC(=N)N)NC2=O [compound 710] (H-DCLGVMRKCDPDNDKCCRPNLVCSRTHKWCKYVF-NH2; disulfide 2-17, 9-23, 16-30)	690 nM	1300 nM	35000 nM
CC[C@H](C)[C@@H]1NC(=O)[C@@H]2CSSC[C@@H]3NC(=O)[C@H](C(C)C)NC(=O)[C@H](CC(C)C)NC(=O)[C@H](CC(N)=O)NC(=O)[C@@H]4CCCN4C(=O)[C@H](CCCNC(=N)N)NC(=O)[C@H](CSSC[C@H](NC(=O)[C@@H](N)CC(=O)O)C(=O)N[C@@H](CC(C)C)C(=O)NCC(=O)N[C@@H](C(C)C)C(=O)N[C@@H](CCSC)C(=O)N[C@@H](CCCNC(=N)N)C(=O)N[C@@H](CCCCN)C(=O)N2)NC(=O)[C@H](CSSC[C@@H](C(=O)N[C@@H](CCCCN)C(=O)N[C@@H](Cc2ccc(O)cc2)C(=O)N[C@H](C(=O)N[C@@H](Cc2ccccc2)C(N)=O)C(C)C)NC(=O)[C@H](Cc2c[nH]c4ccccc24)NC(=O)[C@H](CCCCN)NC(=O)[C@H](Cc2c[nH]cn2)NC(=O)[C@H]([C@@H](C)O)NC(=O)[C@H](CCCNC(=N)N)NC(=O)[C@H](CO)NC3=O)NC(=O)[C@H](CCCCN)NC(=O)[C@H](CC(=O)O)NC(=O)[C@H](CC(N)=O)NC(=O)[C@H](CCC(=O)O)NC(=O)[C@@H]2CCCN2C1=O [compound 711] (H-DCLGVMRKCIPENDKCCRPNLVCSRTHKWCKYVF-NH2; disulfide 2-17, 9-23, 16-30)	480 nM	750 nM	26000 nM
CSCC[C@@H]1NC(=O)[C@H](C(C)C)NC(=O)CNC(=O)[C@H](CC(C)C)NC(=O)[C@@H](NC(=O)[C@@H](N)CC(=O)O)CSSC[C@@H]2NC(=O)[C@@H]3CSSC[C@@H](C(=O)N[C@@H](CCCCN)C(=O)N[C@@H](Cc4ccc(O)cc4)C(=O)N[C@H](C(=O)N[C@@H](Cc4ccccc4)C(N)=O)C(C)C)NC(=O)[C@H](Cc4c[nH]c5ccccc45)NC(=O)[C@H](CCCCN)NC(=O)[C@H](Cc4c[nH]cn4)NC(=O)[C@H]([C@@H](C)O)NC(=O)[C@H](CCCNC(=N)N)NC(=O)[C@H](CO)NC(=O)[C@H](CSSC[C@H](NC(=O)[C@H](CCCCN)NC(=O)[C@H](CCCNC(=N)N)NC1=O)C(=O)N[C@@H](CC(=O)O)C(=O)N1CCC[C@H]1C(=O)N[C@@H](CCC(=O)O)C(=O)N[C@@H](CC(N)=O)C(=O)N[C@@H](CC(=O)O)C(=O)N[C@@H](CCCCN)C(=O)N3)NC(=O)[C@H](C(C)C)NC(=O)[C@H](CC(C)C)NC(=O)[C@H](CC(N)=O)NC(=O)[C@@H]1CCCN1C(=O)[C@H](CCCNC(=N)N)NC2=O [compound 712] (H-DCLGVMRKCDPENDKCCRPNLVCSRTHKWCKYVF-NH2; disulfide 2-17, 9-23, 16-30)	460 nM	1700 nM	34000 nM
